Tests used:
Calf thymus DNA [1] = test: Binding affinity to calf thymus DNA assessed as spectral changes at pH7 by UV/vis spectra; type: nucleic-acid assay; details: Bos taurus
[2] = Binding affinity to poly(dA-dT)2 (unknown origin) assessed as spectral changes at pH7 by UV/vis spectra
[3] = Binding affinity to poly A-poly U (unknown origin) assessed as spectral changes at pH7 by UV/vis spectra
[4] = Binding affinity to poly G-poly C (unknown origin) assessed as spectral changes at pH7 by UV/vis spectra
Calf thymus DNA [5] = test: Binding affinity to calf thymus DNA assessed as binding constant at pH7 by UV/vis titration; type: nucleic-acid assay; details: Bos taurus
[6] = Binding affinity to poly(dA-dT)2 (unknown origin) assessed as binding constant at pH7 by UV/vis titration
[7] = Binding affinity to poly A-poly U (unknown origin) assessed as binding constant at pH7 by UV/vis titration
[8] = Binding affinity to poly G-poly C (unknown origin) assessed as binding constant at pH7 by UV/vis titration
Calf thymus DNA [9] = test: Binding affinity to calf thymus DNA assessed as change in melting temperature at pH7; type: nucleic-acid assay; details: Bos taurus
[10] = Binding affinity to poly(dA-dT)2 (unknown origin) assessed as change in melting temperature at pH7
[11] = Binding affinity to poly A-poly U (unknown origin) assessed as change in melting temperature at pH7
[12] = Binding affinity to poly A (unknown origin) assessed as spectral changes by UV/vis spectra
[13] = Binding affinity to poly U (unknown origin) assessed as spectral changes by UV/vis spectra
[14] = Binding affinity to poly G (unknown origin) assessed as spectral changes by UV/vis spectra
[15] = Binding affinity to poly C (unknown origin) assessed as spectral changes by UV/vis spectra
[16] = Binding affinity to poly A (unknown origin) assessed as binding constant at pH7 by UV/vis titration
[17] = Binding affinity to poly U (unknown origin) assessed as binding constant at pH7 by UV/vis titration
[18] = Binding affinity to poly G (unknown origin) assessed as binding constant at pH7 by UV/vis titration
[19] = Binding affinity to poly C (unknown origin) assessed as binding constant at pH7 by UV/vis titration
[20] = Solubility of the compound in water at 22 degC; type: physicochemical
[21] = Antiproliferative activity against human MOLT4 cells assessed as growth inhibition after 72 hrs by MTT assay; type: functional; details: MOLT-4, 72 h
[22] = Antiproliferative activity against human HCT116 cells assessed as growth inhibition after 72 hrs by MTT assay; type: functional; details: HCT-116, 72 h
SW-620 = test: Antiproliferative activity against human SW620 cells assessed as growth inhibition after 72 hrs by MTT assay; type: functional; details: SW-620, 72 h
MCF7 = test: Antiproliferative activity against human MCF7 cells assessed as growth inhibition after 72 hrs by MTT assay; type: functional; details: MCF7, 72 h
[23] = Antiproliferative activity against human H460 cells assessed as growth inhibition after 72 hrs by MTT assay; type: functional; details: NCI-H460, 72 h
HeLa = test: Antiproliferative activity against human HeLa cells assessed as growth inhibition after 72 hrs by MTT assay; type: functional
[24] = Antiproliferative activity against human MIAPaCa2 cells assessed as growth inhibition after 72 hrs by MTT assay; type: functional; details: MIA PaCa-2, 72 h
Mus musculus = test: Acute oral toxicity in po dosed BALB/C mouse after 24 hrs; type: organism-based; design: unit not given here; details: in vivo

| SMILES | Activity (Calf thymus DNA [1]) [%] | Activity [2] [%] | Activity [3] [%] | Activity [4] [%] | log Ks (Calf thymus DNA [5]) | log Ks [6] | log Ks [7] | log Ks [8] | ΔTm (Calf thymus DNA [9]) [°C] | ΔTm [10] [°C] | ΔTm [11] [°C] | Activity [12] [%] | Activity [13] [%] | Activity [14] [%] | Activity [15] [%] | log Ks [16] | log Ks [17] | log Ks [18] | log Ks [19] | solubility [20] [µg/mL] | other results |
| --- | --- | --- | --- | --- | --- | --- | --- | --- | --- | --- | --- | --- | --- | --- | --- | --- | --- | --- | --- | --- | --- |
| N=C(N)c1ccc2nc(-c3ccc(N)cc3)sc2c1 | 45.6 | 39.8 | 71.6 | 20.3 | 4.46 | 5.09 | 4.55 | 4.5 | 0.7 | 2.8 | 1.3 | 23 | 16.3 | 23.4 | 13.6 | 4.3 | 4.81 | 4.85 | 4.57 |  |  |
| Cl.Nc1ccc2nc(-c3ccc(C4=NCCN4)cc3)sc2c1.O |  |  |  |  |  |  |  |  |  |  |  |  |  |  |  |  |  |  |  | 600 |  |
| Cl.N=C(N)c1ccc2nc(-c3ccc(N)cc3)sc2c1.O |  |  |  |  |  |  |  |  |  |  |  |  |  |  |  |  |  |  |  | 3300 |  |
| CS(=O)(=O)O.Nc1ccc(-c2nc3ccc(C4=NCCN4)cc3s2)cc1 |  |  |  |  |  |  |  |  |  |  |  |  |  |  |  |  |  |  |  | 130000 | GI50 [21]: 3200 nM; GI50 [22]: 1400 nM; GI50 (SW-620): 1100 nM; GI50 (MCF7): 11.3 µM; GI50 [23]: 500 nM; GI50 (HeLa): 16.6 µM; GI50 [24]: 1.4 µM; LD50 (Mus musculus): 175 |
| CS(=O)(=O)O.N=C(N)c1ccc(-c2nc3ccc(N)cc3s2)cc1 |  |  |  |  |  |  |  |  |  |  |  |  |  |  |  |  |  |  |  | 12500 | GI50 [21]: 2800 nM; GI50 [22]: 1600 nM; GI50 (SW-620): 3500 nM; GI50 (MCF7): 1.8 µM; GI50 [23]: 300 nM; GI50 (HeLa): 21 µM; GI50 [24]: 9.7 µM; LD50 (Mus musculus): 31.5 |
| CS(=O)(=O)O.N=C(N)c1ccc2nc(-c3ccc(N)cc3)sc2c1.O |  |  |  |  |  |  |  |  |  |  |  |  |  |  |  |  |  |  |  | 1100 | GI50 [21]: 2200 nM; GI50 [22]: 6100 nM; GI50 (SW-620): 4700 nM; GI50 (MCF7): 15.1 µM; GI50 [23]: 3200 nM; GI50 (HeLa): 17.5 µM; GI50 [24]: 8.5 µM; LD50 (Mus musculus): 26.1 |
| Nc1ccc(-c2nc3ccc(C4=NCCN4)cc3s2)cc1 | 37.1 | 42.5 | 55.5 | 30 | 5.23 | 5.41 | 5.44 | 4.89 | 0.7 | 2.7 | 3.9 | 22.2 | 18.3 | 30.8 | 16.3 | 5.6 | 4.77 | 6.46 | 5.11 |  |  |
| Cl.N=C(N)c1ccc(-c2nc3ccc(N)cc3s2)cc1.O |  |  |  |  |  |  |  |  |  |  |  |  |  |  |  |  |  |  |  | 700 |  |
| N=C(N)c1ccc(-c2nc3ccc(N)cc3s2)cc1 | 42.2 | 37.5 | 45.5 | 25.3 | 4.48 | 5.04 | 4.5 | 4.4 | 0 | 2 | 1 | 24.3 | 14.7 | 33.5 | 13 | 3.99 | 5.15 | 4.6 | 4.19 |  |  |
| CS(=O)(=O)O.Nc1ccc2nc(-c3ccc(C4=NCCN4)cc3)sc2c1 |  |  |  |  |  |  |  |  |  |  |  |  |  |  |  |  |  |  |  | 145000 | GI50 [21]: 2300 nM; GI50 [22]: 1400 nM; GI50 (SW-620): 1200 nM; GI50 (MCF7): 6.7 µM; GI50 [23]: 400 nM; GI50 (HeLa): 17.9 µM; GI50 [24]: 1.1 µM; LD50 (Mus musculus): 74.7 |
| Cl.Nc1ccc(-c2nc3ccc(C4=NCCN4)cc3s2)cc1.O |  |  |  |  |  |  |  |  |  |  |  |  |  |  |  |  |  |  |  | 200 |  |
| Nc1ccc2nc(-c3ccc(C4=NCCN4)cc3)sc2c1 | 38.1 | 41.1 | 53.1 | 23.9 | 4.77 | 5.19 | 4.94 | 5.1 | 0 | 2.1 | 1.3 | 29.5 | 17.5 | 28.6 | 16.5 | 4.83 | 4.43 | 5.61 | 5.23 |  |  |

From ChEMBL document CHEMBL3352290, “Interactions with polynucleotides and antitumor activity of amidino and imidazolinyl substituted 2-phenylbenzothiazole mesylates” (Eur J Med Chem, 2014)
